In ChEMBL document CHEMBL1147474, “Synthesis of new 2'-beta-C-methyl related triciribine analogues as anti-HCV agents” (Bioorg Med Chem Lett, 2004) one finds CC50 and EC50 data, which are given here for 10 compounds.

A value given as a limit tells only on which side of the number the result lay.

Experiment [1] relates to Huh-7. The experiment in a line: Cytotoxicity using HCV replicon assay. In kind it is functional. To be noted: Homo sapiens. For orientation: Replicon systems follow genome replication, usually without infectious particles.
Experiment [2] deals with Huh-7. Put plainly: Compound was tested for its ability to inhibit hepatitis C viral RNA replication in Huh-7 cells (human hepatoma cells). In kind it is functional, cell-based.

Consider `CCN1N=C(N)c2cn([C@@H]3O[C@H](CO)[C@@H](O)[C@H]3O)c3ncnc1c23`, for which half-maximal cytotoxicity with Huh-7 [1] (CC50) was put at 150 µM. In the experiment on Huh-7 [2], this compound yielded an EC50 of 1 µM.
In the experiment on Huh-7 [1], `CC(=O)NC1=NN(C)c2ncnc3c2c1cn3[C@@H]1O[C@H](CO)[C@@H](O)[C@@]1(C)O` gave a half-maximal cytotoxic concentration (CC50) of 300 µM. Besides, a half-maximal response in the experiment with Huh-7 [2] (EC50) required 150 µM.
The corresponding values for `CN1N=C(N)c2cn([C@@H]3O[C@H](CO)[C@@H](O)[C@@]3(C)O)c3ncnc1c23` are > 300 µM and 18 µM.
The corresponding values for `CC(=O)NC1=NN(CCO)c2ncnc3c2c1cn3[C@@H]1O[C@H](CO)[C@@H](O)[C@@]1(C)O` are 200 µM and 100 µM.
As for `NC1=NN(Cc2ccccc2)c2ncnc3c2c1cn3[C@@H]1O[C@H](CO)[C@@H](O)[C@H]1O`, in the experiment with Huh-7 [1], the CC50 is > 300 µM. Further, in the experiment on Huh-7 [2], the concentration for a half-maximal effect (EC50) was found to be 125 µM.
In the case of `CCCN1N=C(N)c2cn([C@@H]3O[C@H](CO)[C@@H](O)[C@@]3(C)O)c3ncnc1c23`, in the experiment on Huh-7 [1], the CC50 was > 300 µM. Also, the response in the experiment with Huh-7 [2] was half-maximal at 100 µM (EC50).
The corresponding values for `NC1=NN(CCO)c2ncnc3c2c1cn3[C@@H]1O[C@H](CO)[C@@H](O)[C@H]1O` are > 300 µM and 20 µM.
The corresponding values for `CCCCN1N=C(N)c2cn([C@@H]3O[C@H](CO)[C@@H](O)[C@@]3(C)O)c3ncnc1c23` are > 300 µM and 100 µM.
The corresponding values for `C[C@@]1(O)[C@H](O)[C@@H](CO)O[C@H]1n1cc2c3c(ncnc31)N(CCO)N=C2N` are > 300 µM and 200 µM.
In the case of `CCN1N=C(N)c2cn([C@@H]3O[C@H](CO)[C@@H](O)[C@@]3(C)O)c3ncnc1c23`, the 50% cytotoxic concentration (CC50) in the experiment with Huh-7 [1] was > 200 µM. Also, the concentration for a half-maximal effect (EC50) in the experiment on Huh-7 [2] was found to be 15 µM.

By CC50 is commonly meant the concentration giving 50% cytotoxicity. The term EC50 denotes the midpoint of the concentration-response curve. A high value points to a need for much substance.
